Columns and labels:
PC3 cells [1] = test: Immunofluorescence of cytochrome c, PC3 cells; type: cell-based, human
Method: (§1) For intracellular delivery, BH3BIM(I155R/E158S) was fused to the C-terminus of the cell penetration peptide (CPP) derived from HIV Tat (Figure 1). PC3 and HCT116 cells were treated with the CPP-BH3BIM(I155R/E158S) peptide, and the MTT assay was performed. […] We then measured the activity of Akt by examining the phosphorylation state of itself and its substrate GSK3β. […] To elaborate this observation, we examined the effect of the fusion peptide in three different human lung cancer cell lines. […] We then assessed the effect of the Akt activity by ectopically expressing wild-type Akt (Akt-WT), constitutively active Akt (myristoylated Akt; Akt-Myr) or kinase-dead-Akt (Akt-KD). […] The kinase activities of the three Akt versions were confirmed by examining GSK3β phosphorylation (Figures 6f and p-GSK3β). To know whether CPP-BH3BIM(I155R/E158S)-induced cell death might depend on BAX, the HCT116 BAX^+/− and the HCT116 BAX^−/− cell lines were transfected with an expression vector encoding AKT-Myr and the cells were treated with the peptide. […] The survival of the BAX^−/− cells despite the CPP-BH3BIM(I155R/E158S) treatment could be explained by an observation that the designed peptide only weakly binds to MCL-1 (not shown), which is a major inhibitor of BAK.[35] Presumably, both MCL-1 and BAK are expressed in these cells.[36]
Figure 6 CPP-fused BH3BIM(I155R/E158S) peptide induces death of PC3 cells. (a) Cell viability evaluated by the MTT assay 72 h after treatment of the peptide (0, 10 or 20 μM). N.S indicates non-significance. Error bars indicate S.D. (n=3). (b) The immunofluorescence images of PC3 and HCT116 cells treated with 20-μM CPP-BH3BIM(I155R/E158S). Cytochrome c (green) was detected by anti-cytochrome c antibody and FITC-conjugated secondary antibody, and the nucleus was stained by DAPI. The large boxes are the enlargement of the small boxes, highlighting the cytochrome c staining. (c) Western blot (WB) analysis to examine the effect of CPP-BH3BIM(I155R/E158S) on the phosphorylation of Akt (at Ser473) and GSK3β (at Ser9). PC3 cells were incubated with the peptide for 6 h at the indicated concentration. t-Akt and t-GSK3β stand for total Akt and GSK3β, respectively. (d) MTT assay to examine the cytotoxic effect of CPP-BH3BIM(I155R/E158S) on lung cancer cell lines. […] (e) Promotion of CPP-BH3BIM(I155R/E158S)-induced death of HCT116 cells by Akt. Cells were transfected with the indicated vectors for 24 h and incubated with the peptide for 72 h. Cell death was promoted by Akt-WT and Akt-Myr, but not by Akt-KD. (f) Phosphorylation of GSK3β (p-GSK3β) by Akt-WT and Akt-Myr, but not by Akt-KD. […]
Figure 7 The BH3BIM(I155R/E158S) sequence induces phosphorylation-dependent cell death. […] Percent of live cells were determined by average of 200 cells in three independent experiments. […]

HCT116 cells [2] = test: Immunofluorescence of cytochrome c, HCT116 cells; type: cell-based, human; details: 20 μM
Method: (§2) For intracellular delivery, BH3BIM(I155R/E158S) was fused to the C-terminus of the cell penetration peptide (CPP) derived from HIV Tat (Figure 1). PC3 and HCT116 cells were treated with the CPP-BH3BIM(I155R/E158S) peptide, and the MTT assay was performed. […] We then measured the activity of Akt by examining the phosphorylation state of itself and its substrate GSK3β. […] To elaborate this observation, we examined the effect of the fusion peptide in three different human lung cancer cell lines. […] We then assessed the effect of the Akt activity by ectopically expressing wild-type Akt (Akt-WT), constitutively active Akt (myristoylated Akt; Akt-Myr) or kinase-dead-Akt (Akt-KD). […] The kinase activities of the three Akt versions were confirmed by examining GSK3β phosphorylation (Figures 6f and p-GSK3β). […]
(§3) Figure 6 CPP-fused BH3BIM(I155R/E158S) peptide induces death of PC3 cells. (a) Cell viability evaluated by the MTT assay 72 h after treatment of the peptide (0, 10 or 20 μM). […] Cytochrome c (green) was detected by anti-cytochrome c antibody and FITC-conjugated secondary antibody, and the nucleus was stained by DAPI. […]
Cells were seeded on a cover glass and incubated with the CCP-fused BH3BIM(I155R/E158S) peptide. […] The immunofluorescence signal was detected by fluorescence microscopy (Zeiss, Oberkochen, Germany).

Akt = test: Western blot of Akt phosphorylation (Ser473) in PC3 cells; type: cell-based; details: 6 h
Method: as §2, with “p-GSK3β). To know whether CPP-BH3BIM(I155R/E158S)-induced cell death might depend on BAX, the HCT116 BAX^+/− and the HCT116 BAX^−/− cell lines were transfected with an expression vector encoding AKT-Myr and the cells were treated with the peptide.” for “p-GSK3β).”
as §3

H1299 = test: MTT assay, H1299 lung cancer cells; type: cell-based, human; details: PTEN-silenced
Method: as §2, with “p-GSK3β). To know whether CPP-BH3BIM(I155R/E158S)-induced cell death might depend on BAX, the HCT116 BAX^+/− and the HCT116 BAX^−/− cell lines were transfected with an expression vector encoding AKT-Myr and the cells were treated with the peptide.” for “p-GSK3β).”
as §3

A549 = test: MTT assay, A549 lung cancer cells; type: cell-based, human; details: K-Ras mutation
Method: as §2, with “p-GSK3β). To know whether CPP-BH3BIM(I155R/E158S)-induced cell death might depend on BAX, the HCT116 BAX^+/− and the HCT116 BAX^−/− cell lines were transfected with an expression vector encoding AKT-Myr and the cells were treated with the peptide.” for “p-GSK3β).”
as §3

H23 = test: MTT assay, H23 lung cancer cells; type: cell-based, human; details: wild-type K-Ras, normal Akt activity
Method: as §2, with “p-GSK3β). To know whether CPP-BH3BIM(I155R/E158S)-induced cell death might depend on BAX, the HCT116 BAX^+/− and the HCT116 BAX^−/− cell lines were transfected with an expression vector encoding AKT-Myr and the cells were treated with the peptide.” for “p-GSK3β).”
as §3

HCT116 cells [3] = test: Death of HCT116 cells with ectopic Akt; type: cell-based; details: peptide 72 h
Method: as §1
Figure 6 CPP-fused BH3BIM(I155R/E158S) peptide induces death of PC3 cells. (a) Cell viability evaluated by the MTT assay 72 h after treatment of the peptide (0, 10 or 20 μM). N.S indicates non-significance. Error bars indicate S.D. (n=3). (b) The immunofluorescence images of PC3 and HCT116 cells treated with 20-μM CPP-BH3BIM(I155R/E158S). Cytochrome c (green) was detected by anti-cytochrome c antibody and FITC-conjugated secondary antibody, and the nucleus was stained by DAPI. The large boxes are the enlargement of the small boxes, highlighting the cytochrome c staining. (c) Western blot (WB) analysis to examine the effect of CPP-BH3BIM(I155R/E158S) on the phosphorylation of Akt (at Ser473) and GSK3β (at Ser9). […]

PC3 cells [4] = test: Cell fractionation: cytochrome c release from mitochondria; type: cell-based; details: 6 h
Method: Figure 7 The BH3BIM(I155R/E158S) sequence induces phosphorylation-dependent cell death. (a) Cell viability by the MTT assay. One day after transfection of PC3 cells with an empty vector (EV) or a PTEN-expressing vector (PTEN), cells were treated for 12 h with AuNP-anti-GST DNA aptamer composite coated with the indicated BH3BIM peptide fused to GST (5 μM). (b) Intracellular delivery of the GST-fused peptides. Cells were washed with PBS three times to remove proteins attached to the plasma membrane. M1 stands for BH3BIM (E158S), M2 for BH3BIM (I155R/E158A), and M3 for BH3BIM (I155R/E158S). (c) Cell viability by trypan blue dye exclusion assay. To confirm the effect in (a), cells were incubated with indicated materials for 24 h and stained with trypan blue for 10 min. Percent of live cells were determined by average of 200 cells in three independent experiments. (d) Immunostaining of cytochrome c in PC3 cells. Cells were transfected (EV or PTEN), and incubated with the CPP-BH3BIM(I155R/E158S) peptide (CPP-peptide) for 48 h. […] Cells were incubated with CPP-BH3BIM(I155R/E158S) for 6 h and subjected to cell fractionation. […] (g) HEK293 cells were treated in the same way as in (a). Viable cells were evaluated 48 h after the treatment by the MTT assay. Error bars indicate the S.D. (n=3) […]

PARP = PARP cleavage; type: cell-based; details: PTEN-transfected; indicator of caspase activation
Method: Figure 7 The BH3BIM(I155R/E158S) sequence induces phosphorylation-dependent cell death. (a) Cell viability by the MTT assay. One day after transfection of PC3 cells with an empty vector (EV) or a PTEN-expressing vector (PTEN), cells were treated for 12 h with AuNP-anti-GST DNA aptamer composite coated with the indicated BH3BIM peptide fused to GST (5 μM). (b) Intracellular delivery of the GST-fused peptides. Cells were washed with PBS three times to remove proteins attached to the plasma membrane. M1 stands for BH3BIM (E158S), M2 for BH3BIM (I155R/E158A), and M3 for BH3BIM (I155R/E158S). (c) Cell viability by trypan blue dye exclusion assay. To confirm the effect in (a), cells were incubated with indicated materials for 24 h and stained with trypan blue for 10 min. Percent of live cells were determined by average of 200 cells in three independent experiments. (d) Immunostaining of cytochrome c in PC3 cells. Cells were transfected (EV or PTEN), and incubated with the CPP-BH3BIM(I155R/E158S) peptide (CPP-peptide) for 48 h. […] (e) PTEN blocked the cytochrome c release from mitochondria. Cells were incubated with CPP-BH3BIM(I155R/E158S) for 6 h and subjected to cell fractionation. […] (g) HEK293 cells were treated in the same way as in (a). Viable cells were evaluated 48 h after the treatment by the MTT assay. Error bars indicate the S.D. (n=3) […]

HEK293 cells = test: MTT assay, HEK293 cells; type: cell-based; details: AuNP-protein or CPP-peptide
Method: Figure 7 The BH3BIM(I155R/E158S) sequence induces phosphorylation-dependent cell death. (a) Cell viability by the MTT assay. One day after transfection of PC3 cells with an empty vector (EV) or a PTEN-expressing vector (PTEN), cells were treated for 12 h with AuNP-anti-GST DNA aptamer composite coated with the indicated BH3BIM peptide fused to GST (5 μM). (b) Intracellular delivery of the GST-fused peptides. Cells were washed with PBS three times to remove proteins attached to the plasma membrane. M1 stands for BH3BIM (E158S), M2 for BH3BIM (I155R/E158A), and M3 for BH3BIM (I155R/E158S). (c) Cell viability by trypan blue dye exclusion assay. To confirm the effect in (a), cells were incubated with indicated materials for 24 h and stained with trypan blue for 10 min. Percent of live cells were determined by average of 200 cells in three independent experiments. (d) Immunostaining of cytochrome c in PC3 cells. […] Viable cells were evaluated 48 h after the treatment by the MTT assay. […]
PC3 and HEK293 cells were incubated with the GST-BH3BIM(I155R/E158S) protein conjugated to AuNP-anti-GST DNA aptamer composite[37] after transfection with a PTEN expression vector (pCMV Flag WT-PTEN; addgene plasmid #22231). […] After removing excess solution and washing with PBS, the precipitated materials were dissolved in […] of dimethyl sulfoxide and quantified by measuring the absorbance at 540 nm. […]

PC3 cells [5] = test: MTT viability assay, PC3 cells, CPP-fused peptide; details: 72 h, 0, 10 or 20 μM, n=3, PTEN-null, elevated Akt activity
GSK3β = test: Western blot of GSK3β phosphorylation (Ser9) in PC3 cells; details: 6 h

For “YGRRARRRARREIWIAQELRRRGDSFNAYYAR [CPP-BH3BIM(I155R/E158S)]”, the apoptotic cell death (PC3 cells [1]; 20 μM, immunofluorescence) was “underwent apoptotic cell death”, the cytochrome c distribution (PC3 cells [1]; 20 μM, immunofluorescence, untransfected PC3) was “diffused in the cytoplasm and gradually accumulated in the nucleus” and the “cytochrome c staining pattern” value (PC3 cells [1]; EV-transfected PC3, 48 h) was “diffused nuclear pattern”. The “cytochrome c staining pattern” value (PC3 cells [1]; PTEN-expressing PC3, 48 h) was “Cytoplasmic puncta staining pattern”, the cytochrome c distribution (HCT116 cells [2]) was “retained the puncta staining pattern” and the “phosphorylation of Akt (Ser473)” value (Akt) was “not Akt itself”. The “sensitivity to the peptide” value (H1299) was “exhibited sensitivity to the peptide”, the “response to the peptide” value (A549) was “moderate response” and the “response to the peptide” value (H23) was “did not respond to this peptide”. For the same sequence, the “promotion of peptide-induced cell death” value (HCT116 cells [3]; Akt-KD transfected 24 h) was “did not show an additive effect”, the “promotion of peptide-induced cell death” value (HCT116 cells [3]; Akt-Myr transfected 24 h) was “promoted death of HCT116 cells” and the “promotion of peptide-induced cell death” value (HCT116 cells [3]; Akt-WT transfected 24 h) was “promoted death of HCT116 cells”. For the same sequence, the cytoplasmic cytochrome c (PC3 cells [4]) was “Increase of cytoplasmic cytochrome c”, the “increase of cytoplasmic cytochrome c with PTEN expression” value (PC3 cells [4]; PTEN-transfected) was “obviously blocked by PTEN expression” and the “PARP cleavage with PTEN” value (PARP) was “PTEN also blocked PARP cleavage”. For the same sequence, the “viability of HEK293 cells (Supplementary Figure S6)” value (HEK293 cells) was “slightly increased cell viability without a statistical significance”, the cytotoxic activity (PC3 cells [5]) was “strong cytotoxic activity” and the “phosphorylation of GSK3β (Ser9)” value (GSK3β; PC3 cells, western blot) was “reduced the phosphorylation of GSK3β”. The p-S9-GSK3β (GSK3β; PTEN experiment (Figure 7e)) was “Reduction of p-S9-GSK3β”.

— paper PMC4650712, “Conversion of cell-survival activity of Akt into apoptotic death of cancer cells by two mutations on the BIM BH3 domain” (Cell Death & Disease, 2015)
